Source: patent US20240148821A1, “PHARMACEUTICAL USE OF CYCLIC PEPTIDE COMPOUND” (CHUGAI SEIYAKU KABUSHIKI KAISHA, priority 2021, published 2024)
Bridge positions count the residues as written; N and C are the ends. Square brackets hold non-standard residues; d marks the D form. Peptide text beside a SMILES is read from it. * marks the point of attachment. hPhe(3,5-F2-4-CF3) = N[C@@H](CCc1cc(F)c(C(F)(F)F)c(F)c1)C(=O)O; hPhe(3-Cl-4-CF3) = N[C@@H](CCc1ccc(C(F)(F)F)c(Cl)c1)C(=O)O; hPhe(3-F,4-CF3) = N[C@@H](CCc1ccc(C(F)(F)F)c(F)c1)C(=O)O; NEtPhe(4-CF3) = CCN[C@@H](Cc1ccc(C(F)(F)F)cc1)C(=O)O; NMePhe(4-CF3) = CN[C@@H](Cc1ccc(C(F)(F)F)cc1)C(=O)O; NEtPhe(4-Me) = CCN[C@@H](Cc1ccc(C)cc1)C(=O)O; NMeAbu(4,4,4-F3) = CN[C@@H](CC(F)(F)F)C(=O)O; NMeAla(cPent) = CN[C@@H](CC1CCCC1)C(=O)O; NMeGly(cPent) = CN[C@H](C(=O)O)C1CCCC1; NMeGly(cBu) = CN[C@H](C(=O)O)C1CCC1; NMeCha = CN[C@@H](CC1CCCCC1)C(=O)O; Hyp = O=C(O)[C@@H]1C[C@@H](O)CN1; NEtLeu = CCN[C@@H](CC(C)C)C(=O)O; NMeChg = CN[C@H](C(=O)O)C1CCCCC1; NMeI = CC[C@H](C)[C@H](NC)C(=O)O; NMeD = CN[C@@H](CC(=O)O)C(=O)O; NMeL = CN[C@@H](CC(C)C)C(=O)O; Oxazolidin(3-yl) = C1CN(*)CO1; NMeV = CN[C@H](C(=O)O)C(C)C; Azetidin(1-yl) = C1CN(*)C1; Morpholide = C1CN(*)CCO1; NMeA = CN[C@@H](C)C(=O)O; Piperidide = C1CCN(*)CC1; Pyrrolidide = C1CCN(*)C1; Ac5c = NC1(C(=O)O)CCCC1; Aze = O=C(O)[C@@H]1CCN1; NEtG = CCNCC(=O)O; Sar = CNCC(=O)O

Legend:
[1] = system: Human pancreatic cancer cell line AsPC-1 (G12D mutation Kras); assay: AsPC-1 cell growth inhibition (AsPC-1 CGI); assay type: cell-based; details: read-out: AsPC-1 cell growth inhibition, 50% growth inhibitory concentration (IC50 value); 96 hours, CellTiter-Glo, values classified in ranges
[2] = biological target: protein-protein interaction between Kras and SOS1 (biotin-tagged human Kras loaded with GDP, His-tagged human SOS1) (Homo sapiens (Human), UniProt P01116, G12D); assay: Protein-protein interaction inhibition between Kras and SOS1 (KrasG12D-SOS PPI) using AlphaScreen; assay type: biochemical; details: AlphaScreen; biotin-tagged human Kras loaded with GDP, His-tagged human SOS1; read-out: KRAS G12D-SOS PPI IC50;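 note: kras produced in E. coli, Ni-coupled donor beads and streptavidin acceptor beads, excitation 680 nm with emission detected at 520–620 nm via singlet oxygen transfer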

Compound	IC50 [1] [nM]	IC50 [2] [nM]
CCO[C@@H]1C[C@H]2C(=O)NC3(CCCC3)C(=O)N(C)[C@@H](C3CCCCC3)C(=O)N(C)[C@H](C(=O)N3CCCC3)CC(=O)N(C)[C@@H](CC(F)(F)F)C(=O)N[C@@H]([C@@H](C)CC)C(=O)N(C)CC(=O)N(C)CC(=O)N(C)[C@@H](CC3CCCCC3)C(=O)N(C)CC(=O)N[C@@H](CCc3cc(F)c(C(F)(F)F)c(F)c3)C(=O)N2C1 [Compound 1149] ([NMeAbu(4,4,4-F3)]I[Sar][Sar][NMeCha][Sar][hPhe(3,5-F2-4-CF3)][Hyp](Et)[Ac5c][NMeChg][NMeD]-Pyrrolidide; lactam N-11)	≤ 20	0.62
CC[C@H](C)[C@@H]1NC(=O)[C@H](CC(C)C)N(C)C(=O)C[C@@H](C(=O)N2CCOCC2)N(C)C(=O)[C@H]([C@@H](C)CC)N(C)C(=O)C2(CCCC2)NC(=O)[C@@H]2CCCN2C(=O)[C@H](CCc2ccc(C(F)(F)F)c(Cl)c2)NC(=O)CN(CC)C(=O)[C@H](Cc2ccc(C(F)(F)F)cc2)N(C)C(=O)[C@@H]2CCN2C(=O)[C@H](C)N(C)C1=O [Compound 1151] ([NMeL]I[NMeA][Aze][NMePhe(4-CF3)][NEtG][hPhe(3-Cl-4-CF3)]P[Ac5c][NMeI][NMeD]-Morpholide; lactam N-11)	≤ 20	5.2
CC[C@H](C)[C@@H]1NC(=O)[C@H](CC(C)C)N(C)C(=O)C[C@@H](C(=O)N(C)C)N(C)C(=O)[C@H](C2CCCC2)N(C)C(=O)C2(CCCC2)NC(=O)[C@@H]2CCCN2C(=O)[C@H](CCc2ccc(C(F)(F)F)c(F)c2)NC(=O)CN(C)C(=O)[C@H](Cc2ccc(C)cc2)N(CC)C(=O)[C@@H]2CCN2C(=O)[C@H](C)N(C)C1=O [Compound 1152] ([NMeL]I[NMeA][Aze][NEtPhe(4-Me)][Sar][hPhe(3-F,4-CF3)]P[Ac5c][NMeGly(cPent)][NMeD]-NMe2; lactam N-11)	≤ 20	1.2
CCO[C@@H]1C[C@H]2C(=O)NC3(CCCC3)C(=O)N(C)[C@@H](C3CCCC3)C(=O)N(C)[C@H](C(=O)N3CCC3)CC(=O)N(C)[C@@H](CC(C)C)C(=O)N[C@@H]([C@@H](C)CC)C(=O)N(C)[C@@H](C)C(=O)N3CC[C@H]3C(=O)N(C)[C@@H](CC3CCCCC3)C(=O)N(C)CC(=O)N[C@@H](CCc3ccc(C(F)(F)F)c(Cl)c3)C(=O)N2C1 [Compound 1158] ([NMeL]I[NMeA][Aze][NMeCha][Sar][hPhe(3-Cl-4-CF3)][Hyp](Et)[Ac5c][NMeGly(cPent)][NMeD]-{Azetidin(1-yl)}; lactam N-11)	≤ 20	0.52
CCO[C@@H]1C[C@H]2C(=O)NC3(CCCC3)C(=O)N(C)[C@@H](C3CCCC3)C(=O)N(C)[C@H](C(=O)N3CCCC3)CC(=O)N(C)[C@@H](CC(C)C)C(=O)N[C@@H]([C@@H](C)CC)C(=O)N(C)CC(=O)N(C)CC(=O)N(C)[C@@H](CC3CCCCC3)C(=O)N(C)CC(=O)N[C@@H](CCc3cc(F)c(C(F)(F)F)c(F)c3)C(=O)N2C1 [Compound 1162] ([NMeL]I[Sar][Sar][NMeCha][Sar][hPhe(3,5-F2-4-CF3)][Hyp](Et)[Ac5c][NMeGly(cPent)][NMeD]-Pyrrolidide; lactam N-11)	≤ 20	0.57
CC[C@H](C)[C@@H]1NC(=O)[C@H](CC(C)C)N(C)C(=O)C[C@@H](C(=O)N(C)C)N(C)C(=O)[C@H](C2CCCC2)N(C)C(=O)C2(CCCC2)NC(=O)[C@@H]2CCCN2C(=O)[C@H](CCc2cc(F)c(C(F)(F)F)c(F)c2)NC(=O)CN(C)C(=O)[C@H](CC2CCCCC2)N(C)C(=O)[C@@H]2CCN2C(=O)[C@H](C)N(C)C1=O [Compound 1170] ([NMeL]I[NMeA][Aze][NMeCha][Sar][hPhe(3,5-F2-4-CF3)]P[Ac5c][NMeGly(cPent)][NMeD]-NMe2; lactam N-11)	≤ 20	0.54
CC[C@H](C)[C@@H]1NC(=O)[C@H](CC2CCCC2)N(C)C(=O)C[C@@H](C(=O)N2CCOCC2)N(C)C(=O)[C@H](C2CCCC2)N(C)C(=O)C2(CCCC2)NC(=O)[C@@H]2CCCN2C(=O)[C@H](CCc2ccc(C(F)(F)F)c(Cl)c2)NC(=O)CN(C)C(=O)[C@H](C2CCCC2)N(C)C(=O)[C@@H]2CCN2C(=O)[C@H](C)N(C)C1=O [Compound 1173] ([NMeAla(cPent)]I[NMeA][Aze][NMeGly(cPent)][Sar][hPhe(3-Cl-4-CF3)]P[Ac5c][NMeGly(cPent)][NMeD]-Morpholide; lactam N-11)	≤ 20	0.74
CC[C@H](C)[C@@H]1NC(=O)[C@H](CC(C)C)N(C)C(=O)C[C@@H](C(=O)N2CCCCC2)N(C)C(=O)[C@H](C(C)C)N(C)C(=O)[C@@H](C)NC(=O)[C@@H]2CCCN2C(=O)[C@H](CCc2ccc(C(F)(F)F)c(Cl)c2)NC(=O)CN(C)C(=O)[C@H](CC2CCCCC2)N(C)C(=O)[C@@H]2CCN2C(=O)[C@H](C)N(C)C1=O [Compound 1174] ([NMeL]I[NMeA][Aze][NMeCha][Sar][hPhe(3-Cl-4-CF3)]P[dA][NMeV][NMeD]-Piperidide; lactam N-11)	> 500	62
CC[C@H](C)[C@@H]1NC(=O)[C@H](CC(C)C)N(C)C(=O)C[C@@H](C(=O)N2CCCC2)N(C)C(=O)[C@H]([C@@H](C)CC)N(C)C(=O)C2(CCCC2)NC(=O)[C@@H]2CCCN2C(=O)[C@H](CCc2cc(F)c(C(F)(F)F)c(F)c2)NC(=O)CN(C)C(=O)[C@H](Cc2ccc(C(F)(F)F)cc2)N(CC)C(=O)[C@@H]2CCN2C(=O)[C@H](C)N(C)C1=O [Compound 1175] ([NMeL]I[NMeA][Aze][NEtPhe(4-CF3)][Sar][hPhe(3,5-F2-4-CF3)]P[Ac5c][NMeI][NMeD]-Pyrrolidide; lactam N-11)	≤ 20	0.79
CC[C@H](C)[C@@H]1NC(=O)[C@H](CC(C)C)N(C)C(=O)C[C@@H](C(=O)N2CCOC2)NC(=O)[C@H](C(C)C)N(C)C(=O)C2(CCCC2)NC(=O)[C@@H]2CCCN2C(=O)[C@H](CCc2ccc(C(F)(F)F)c(Cl)c2)NC(=O)CN(C)C(=O)[C@H](CC2CCCCC2)N(C)C(=O)[C@@H]2CCN2C(=O)[C@H](C)N(C)C1=O [Compound 1188] ([NMeL]I[NMeA][Aze][NMeCha][Sar][hPhe(3-Cl-4-CF3)]P[Ac5c][NMeV]D-{Oxazolidin(3-yl)}; lactam N-11)	> 500	33
CC[C@H](C)[C@@H]1NC(=O)[C@H](CC(C)C)N(CC)C(=O)C[C@@H](C(=O)N2CCCC2)N(C)C(=O)[C@H]([C@@H](C)CC)N(C)C(=O)C2(CCCC2)NC(=O)[C@@H]2CCCN2C(=O)[C@H](CCc2ccc(C(F)(F)F)c(Cl)c2)NC(=O)CN(C)C(=O)[C@H](Cc2ccc(C(F)(F)F)cc2)N(C)C(=O)[C@@H]2CCN2C(=O)[C@H](C)N(C)C1=O [Compound 1190] ([NEtLeu]I[NMeA][Aze][NMePhe(4-CF3)][Sar][hPhe(3-Cl-4-CF3)]P[Ac5c][NMeI][NMeD]-Pyrrolidide; lactam N-11)	≤ 20	0.83
CC[C@H](C)[C@@H]1NC(=O)[C@H](CC2CCCC2)N(C)C(=O)C[C@@H](C(=O)N2CCC2)N(C)C(=O)[C@H](C2CCCC2)N(C)C(=O)C2(CCCC2)NC(=O)[C@@H]2CCCN2C(=O)[C@H](CCc2ccc(C(F)(F)F)c(Cl)c2)NC(=O)CN(C)C(=O)[C@H](CC2CCCCC2)N(C)C(=O)[C@@H]2CCN2C(=O)[C@H](C)N(C)C1=O [Compound 1199] ([NMeAla(cPent)]I[NMeA][Aze][NMeCha][Sar][hPhe(3-Cl-4-CF3)]P[Ac5c][NMeGly(cPent)][NMeD]-{Azetidin(1-yl)}; lactam N-11)	≤ 20	0.7
CC[C@H](C)[C@@H]1NC(=O)[C@H](CC(C)C)N(C)C(=O)C[C@@H](C(=O)N2CCOCC2)NC(=O)[C@H](C(C)C)N(C)C(=O)C2(CCCC2)NC(=O)[C@@H]2CCCN2C(=O)[C@H](CCc2ccc(C(F)(F)F)c(Cl)c2)NC(=O)CN(C)C(=O)[C@H](CC2CCCCC2)N(C)C(=O)[C@@H]2CCN2C(=O)[C@H](C)N(C)C1=O [Compound 1200] ([NMeL]I[NMeA][Aze][NMeCha][Sar][hPhe(3-Cl-4-CF3)]P[Ac5c][NMeV]D-Morpholide; lactam N-11)	> 500	45
CCO[C@@H]1C[C@H]2C(=O)NC3(CCCC3)C(=O)N(C)[C@@H](C3CCCCC3)C(=O)N(C)[C@H](C(=O)N3CCCC3)CC(=O)N(C)[C@@H](C3CCC3)C(=O)N[C@@H]([C@@H](C)CC)C(=O)N(C)CC(=O)N(C)CC(=O)N(C)[C@@H](CC3CCCCC3)C(=O)N(C)CC(=O)N[C@@H](CCc3ccc(C(F)(F)F)c(Cl)c3)C(=O)N2C1 [Compound 1204] ([NMeGly(cBu)]I[Sar][Sar][NMeCha][Sar][hPhe(3-Cl-4-CF3)][Hyp](Et)[Ac5c][NMeChg][NMeD]-Pyrrolidide; lactam N-11)	≤ 20	0.44
CC[C@H](C)[C@@H]1NC(=O)[C@H](CC(C)C)N(C)C(=O)C[C@@H](C(=O)N(C)C)N(C)C(=O)[C@H](C2CCCC2)N(C)C(=O)C2(CCCC2)NC(=O)[C@@H]2CCCN2C(=O)[C@H](CCc2ccc(C(F)(F)F)c(F)c2)NC(=O)CN(CC)C(=O)[C@H](CC2CCCCC2)N(C)C(=O)[C@@H]2CCN2C(=O)[C@H](C)N(C)C1=O [Compound 1205] ([NMeL]I[NMeA][Aze][NMeCha][NEtG][hPhe(3-F,4-CF3)]P[Ac5c][NMeGly(cPent)][NMeD]-NMe2; lactam N-11)	≤ 20	2.8
CCO[C@@H]1C[C@H]2C(=O)NC3(CCCC3)C(=O)N(C)[C@@H](C3CCCCC3)C(=O)N(C)[C@H](C(=O)N3CCOCC3)CC(=O)N(C)[C@@H](CC(F)(F)F)C(=O)N[C@@H]([C@@H](C)CC)C(=O)N(C)CC(=O)N(C)CC(=O)N(C)[C@@H](Cc3ccc(C(F)(F)F)cc3)C(=O)N(C)CC(=O)N[C@@H](CCc3ccc(C(F)(F)F)c(Cl)c3)C(=O)N2C1 [Compound 1206] ([NMeAbu(4,4,4-F3)]I[Sar][Sar][NMePhe(4-CF3)][Sar][hPhe(3-Cl-4-CF3)][Hyp](Et)[Ac5c][NMeChg][NMeD]-Morpholide; lactam N-11)	≤ 20	0.57
